These results are taken from patent publication US12012467B2, “Small molecule DCN1 inhibitors and therapeutic methods using the same” (THE REGENTS OF THE UNIVERSITY OF MICHIGAN, priority 2017, dated 2024).

Numbered stars: 1 amine (or outer) side, 2 acyl side, 3 side chain; on linkers, the order of the positions; unused ones are H or OH. Square brackets hold non-standard residues; d marks the D form. Peptide text beside a SMILES is read from it. * marks the point of attachment. Ala(6-iPr-benzothiazol-2-yl) = CC(C)c1ccc2nc(C[C@H](N)C(=O)O)sc2c1; 2Nal = N[C@@H](Cc1ccc2ccccc2c1)C(=O)O; Cha = N[C@@H](CC1CCCCC1)C(=O)O; dLac = C[C@@H](O)C(=O)O; CO = O=C([*:1])[*:2]; Propionyl = CCC(=O)*; For = O=C* A value given as a limit tells only on which side of the number the result lay.

DCN1, sequence (Q96GG9 58-259): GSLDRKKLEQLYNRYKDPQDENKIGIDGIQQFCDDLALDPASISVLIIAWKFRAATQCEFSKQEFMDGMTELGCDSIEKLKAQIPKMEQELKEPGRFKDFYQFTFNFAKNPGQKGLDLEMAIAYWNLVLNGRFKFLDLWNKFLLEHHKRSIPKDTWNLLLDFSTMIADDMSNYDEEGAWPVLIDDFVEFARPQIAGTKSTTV

The first assay concerns the target DCN1 (Homo sapiens (Human), UniProt Q96GG9). Description: Competitive FP binding assay. To be noted: bounds given in μM; read-out: Binding affinity to DCN1 (IC50). As for the experimental part: Competitive FP Binding Assay
The Fluorescence Polarization (FP) competitive binding assays were performed to accurately determine the binding affinities of our DCN1 inhibitors. […] Serial dilutions of proteins were mixed with 46 to a final volume of 200 μl in the assay buffer (100 mM phosphate buffer, pH=6.5, with 0.02% Tween-20 and 2% DMSO). Final probe concentration was 5 nM for both assays. Plates were incubated at room temperature for 30 minutes with gentle shaking to assure equilibrium.
Pure proteins were derived from the same expression and purification protocols. Plasmids were transformed into Rosetta2 cells, the cells were grown in Terrific Broth at 37° C. to an O.D.600>1.0 and induced with 0.4 mM Isopropyl (3-D-1-thiogalactopyranoside overnight at 20° C. The pelleted cells were resuspended in lysis buffer containing 25 mM Tris-HCl, pH 7.5, 200 mM NaCl and protease inhibitors, sonicated and centrifuged at 34,000×g for 45 minutes to remove debris. Cleared lysate was incubated with Ni-NTA resin (Qiagen) prewashed with lysis buffer, for 1 hr at 4° C. The matrix was loaded into a column then washed with 25 mM Tris-HCl, pH 7.5, 200 mM NaCl and 10 mM imidazole. Protein was eluted with 25 mM Tris-HCl, pH 7.5, 200 mM NaCl and 300 mM imidazole, concentrated and applied to a Superdex 75 (GE Healthcare) column pre-equilibrated with 25 mM Tris pH 7.5, 200 mM NaCl and 1 mM DTT. For DCN2-5, the N-terminal His6 tag was removed prior to gel filtration. Tag removal was achieved through incubation with TEV protease during overnight dialysis against 25 mM Tris pH 7.5, 200 mM NaCl and 1 mM DTT and a second Ni-NTA column. DCN2-5 proteins were stored at −80° C. in 1 mg/mL fractions containing 5% glycerol. The uncleaved DCN1 protein was stored at −80° C. without glycerol.
As usually defined, the IC50 is the concentration at which inhibition is half-maximal. As to `CCC(=O)N[C@H](Cc1nc2ccc(C(C)C)cc2s1)C(=O)N[C@@H](CN)C1CCCCC1` [Example 122, (R)—N—((R)-2-amino-1-cyclohexylethyl)-3-(6-isopropylbenzo[d]thiazol-2-yl)-2-propionamidopropanamide], the IC50 was > 10 µM.
As to `CCC(=O)N[C@H](CNC(=O)C1(N)CCC(C)(C)CC1)Cc1nc2ccc(C(C)C)cc2s1` [Example 269], the 50% inhibitory concentration (IC50) is > 10 µM.
Same read-out and setting: for `CC[C@H](C)[C@H](NC(=O)[C@H](Cc1ccc2ccccc2c1)NC(=O)[C@@H](C)O)C(=O)N[C@@H](CCCCN)C(=O)N[C@@H](CC(C)C)C(N)=O` [Example 167] (H-[dLac][2Nal]IKL-NH2) the value was > 10 µM; for `CCC(=O)N[C@@H](Cc1nc2ccc(C(C)C)cc2s1)C(=O)N[C@@H](CN)Cc1ccccc1` [Example 90], > 5 µM; for `CCC(=O)N[C@@H](Cc1cccnc1)C(=O)N[C@H](C(=O)N[C@@H](CCCCN)C(=O)NC(c1ccccc1)c1ccccc1)[C@@H](C)CC` [Example 133], > 10 µM.
In the case of `CCC(=O)N[C@@H](Cc1nc2ccc(Cl)cc2s1)CN(Cc1ccccc1)Cc1ccccc1` [Example 259], the IC50 was > 10 µM.
Take `CCC(=O)N[C@H](Cc1nc2ccc(Cl)cc2s1)C(=O)N[C@@H](C[C@H]1CC[C@H](CN)CC1)C(=O)N[C@@H](CCCCN)C(=O)N[C@@H]1CCOc2ccccc21` [Example 201]: the concentration for half-maximal inhibition (IC50) is > 10 µM.
On the same count and under the same terms, for `CCC(=O)N[C@@H](Cc1nc(C)n(C(C)C)n1)C(=O)N[C@H](CN)Cc1ccccc1` [DI-533] the value was > 10 µM.
In the case of `CCC(=O)N[C@@H](Cc1nc2ccc(C(C)C)cc2s1)C(=O)N[C@@H](CN)Cc1ccccc1` (stereo in doubt) [Example 91], the IC50 is > 10 µM.
Consider `CCC(=O)N[C@@H](Cc1nc(C)c(-c2ccc([N+](=O)[O-])cc2)s1)C(=O)N[C@H](CN)Cc1ccccc1` [Example 106], for which the IC50 was > 10 µM.
`CC[C@H](C)[C@@H](CN)NC(=O)[C@@H](N)Cc1nc2ccc(C(C)C)cc2s1` [Example 49, (S)-2-amino-N-((2S,3S)-1-amino-3-methylpentan-2-yl)-3-(6-isopropylbenzo[d]thiazol-2-yl)propanamide]: the IC50 was > 10 µM.

Staying with this assay, now noted: read-out: Binding affinity to DCN1 (IC50 (nM)).
Turning to `CCC(=O)N[C@@H](Cc1nc2ccccc2s1)C(=O)N[C@H](C(=O)N[C@@H](CCCCN)C(=O)NC(c1ccccc1)c1ccccc1)C1CCCC1` [Example 25], the half-inhibitory concentration (IC50) came out at 0.397 µM.
Same read-out and setting: the same measure for `CCC(=O)N[C@@H](Cc1nc2ccc(C)cc2s1)C(=O)N[C@H](C(=O)N[C@@H](C[C@H]1CC[C@H](CN)CC1)C(=O)N[C@@H]1CCOc2ccccc21)C1CCOCC1` [Example 189]: 0.23 µM.
Consider `CCC(=O)N[C@@H](Cc1nc2ccc(C(C)C)cc2s1)C(=O)N[C@@H](CC1CCCCC1)C(=O)N[C@@H](CCCCN)C(=O)N[C@@H](CC(C)C)C(N)=O` [Example 289] (Propionyl-[Ala(6-iPr-benzothiazol-2-yl)][Cha]KL-NH2), for which the concentration for half-maximal inhibition (IC50) is 0.138 µM.
As to `CCC(=O)N[C@@H](Cc1nc2ccc(C(C)C)cc2s1)C(=O)N[C@H](CNC(=O)C1CCN(CC)CC1)C1CCCCC1` [Example 70], the concentration for half-maximal inhibition (IC50) was 0.0451 µM.
The same measure, in the same setting: the same measure for `CCC(=O)N[C@@H](Cc1nc2ccc(Cl)cc2s1)C(=O)N[C@H](CN)[C@@H](C)CC` [Example 213]: 0.746 ± 0.072 µM.
As to `CCC(=O)N[C@@H](Cc1nc2ccc(Cl)cc2s1)C(=O)N[C@H](C(=O)N[C@@H](CCCCN)C(=O)NCc1cccnc1)C1CCOCC1` [Example 242], the IC50 was found to be 1.2 µM.
With `CCC(=O)N[C@@H](Cc1nc2ccc(Cl)cc2s1)C(=O)N[C@H](C(=O)N[C@@H](CCCCN)C(=O)N[C@@H]1CNCc2ccccc21)C1CCOCC1` [Example 43], the IC50 was determined as 0.0843 µM.
`CCC(=O)N[C@@H](Cc1nc2ccc(C(F)(F)F)cc2o1)C(=O)N[C@H](C(=O)N[C@@H](CCCCN)C(=O)N[C@@H]1CCOc2ccccc21)C1CCOCC1` [Example 197]: the IC50 was found to be 0.102 µM.
On to `CC[C@H](C)[C@H](NC(=O)[C@H](Cc1nc2ccc(C(C)C)cc2s1)NC=O)C(=O)N[C@@H](CCCCN)C(=O)N[C@@H](CC(C)C)C(N)=O` [Example 271] (For-[Ala(6-iPr-benzothiazol-2-yl)]IKL-NH2), for which the IC50 is 0.122 µM.
Take `CCC(=O)N[C@@H](Cc1nc2cc(F)ccc2s1)C(=O)N[C@H](C(=O)N[C@@H](CCCCN)C(=O)NC(c1ccccc1)c1ccccc1)C1CCCC1` [Example 27]: the IC50 was found to be 1.2 µM.
As to `CCC(=O)N[C@@H](Cc1nc2ccc(C(C)C)cc2s1)C(=O)N[C@H](CNC(=O)c1cn(C)cn1)C1CCCCC1` [Example 66], the concentration for half-maximal inhibition (IC50) was determined as 0.299 µM.
The same measure, in the same setting: the same measure for `CCC(=O)N[C@H](CNC(=O)C1(CN)CCCCC1)Cc1nc2ccc(C(C)C)cc2s1` [Example 117]: 0.875 µM; for `CCC(=O)N[C@@H](Cc1nc2ccc(C)cc2s1)C(=O)N[C@@H](C[C@H]1CC[C@H](CN)CC1)C(=O)N[C@@H](CCCCN)C(=O)N[C@@H]1CCOc2ccccc21` [Example 185]: 0.111 µM; for `CCC(=O)N[C@@H](Cc1nc2ccc(C(C)(C)C)cc2s1)C(=O)N[C@H](CN)Cc1ccccc1` [Example 223]: 0.949 µM.
`CCC(=O)N[C@@H](Cc1nc2ccc(C(C)C)cc2s1)C(=O)N[C@H](CNC(=O)C12CCN(CC1)CC2)C1CCCCC1` [Example 64]: the IC50 was 0.036 µM.
Take `CCC(=O)N[C@@H](Cc1nc2ccc(C)cc2s1)C(=O)N[C@H](C(=O)N[C@@H](CCCCN(C)C)C(=O)N[C@@H]1CCOc2ccccc21)C1CCOCC1` [Example 188]: the IC50 amounted to 0.156 µM.
`CCC(=O)N[C@@H](Cc1nc2cccc(Cl)c2s1)C(=O)N[C@H](C(=O)N[C@@H](CCCCN)C(=O)NC(c1ccccc1)c1ccccc1)C1CCCC1` [Example 31]: the IC50 came out at 0.137 µM.
For the compound `CCC(=O)N[C@@H](Cc1nc2ccc(Cl)cc2s1)C(=O)N[C@@H](Cc1ccccn1)C(=O)N[C@@H](CCCCN)C(=O)N[C@@H]1CCOc2ccccc21` [Example 202], the half-inhibitory concentration (IC50) amounted to 0.251 µM.
Turning to `CCC(=O)N[C@@H](Cc1nc2cc(Cl)ccc2s1)C(=O)N[C@H](C(=O)N[C@@H](CCCCN)C(=O)NC(c1ccccc1)c1ccccc1)[C@@H](C)CC` [Example 153], the IC50 amounted to 1.9 µM.
Same read-out and setting: the same measure for `CCC(=O)N[C@@H](Cc1nc2ccc(Cl)cc2s1)C(=O)N[C@H](CN)Cc1ccccc1` [Example 86]: 0.491 µM; for `CC[C@H](C)[C@H](NC(=O)[C@H](Cc1nc2ccc(C(C)C)cc2s1)NC(=O)NC)C(=O)N[C@@H](CCCCN)C(=O)N[C@@H](CC(C)C)C(N)=O` [Example 278] ({NHMe-CO}-[Ala(6-iPr-benzothiazol-2-yl)]IKL-NH2): 0.0682 µM; for `CCC(=O)N[C@@H](Cc1nc2ccc(Cl)cc2s1)C(=O)N[C@H](C(=O)N[C@@H](CCCCN)C(=O)N[C@@H]1CCCc2ccccc21)C1CCCC1` [Example 32]: 0.157 µM.
Consider `CC[C@H](C)[C@H](NC(=O)[C@H](Cc1nc2ccc(Cl)cc2s1)NC(C)=O)C(=O)N[C@@H](CCCCN)C(=O)N[C@@H](CC(C)C)C(N)=O` [Example 4, (S)-2-((2S,3 S)-2-((S)-2-acetamido-3-(6-chlorobenzo[d]thiazol-2-yl)propanamido)-3-methylpentanamido)-6-amino-N—((S)-1-amino-4-methyl-1-oxopentan-2-yl)hexanamide], for which the IC50 turned out to be 0.116 µM.
The same measure, in the same setting: for `CCC(=O)N[C@@H](Cc1ccc2ccccc2c1)C(=O)N[C@H](C(=O)N[C@@H](CCCCN)C(=O)N[C@@H]1CCOc2cc(Cl)ccc21)C1CCCC1` [Example 165] the value was 0.122 µM.
As to `CCC(=O)N[C@@H](Cc1nc2ccc(C)cc2o1)C(=O)N[C@H](C(=O)N[C@@H](CCCCN)C(=O)N[C@@H]1CCOc2ccccc21)C1CCOCC1` [Example 194], the IC50 came to 0.0938 µM.
Take `CCC(=O)N[C@H](CNC(=O)[C@@H]1CCCCN1)Cc1nc2ccc(C(C)C)cc2s1` [Example 118]: the IC50 was 3.11 µM.
In the case of `CCC(=O)N[C@@H](Cc1nc2ccccc2s1)C(=O)N[C@H](C(=O)N[C@@H](CCCCN)C(=O)NC(c1ccccc1)c1ccccc1)[C@@H](C)CC` [Example 152], the IC50 is 0.376 µM.
In the case of `CCC(=O)N[C@@H](Cc1nc2ccc(C(C)C)cc2s1)C(=O)N[C@H](CNC(=O)NC1CCNCC1)C1CCCCC1` [DI-749], the IC50 was 0.0529 µM.
Regarding `CCC(=O)N[C@H](CNC(=O)[C@@H](N)C1CCCC1)Cc1nc2ccc(Cl)cc2s1` [Example 260], the IC50 was 1.2 µM.
With `CCC(=O)N[C@@H](Cc1ccc2ccccc2c1)C(=O)N[C@H](C(=O)N[C@@H](CCCCN)C(=O)NC(c1ccc(F)cc1)c1ccc(F)cc1)[C@@H](C)CC` [Example 128], the half-inhibitory concentration (IC50) came out at 0.321 ± 0.032 µM.
For `CCC(=O)N[C@@H](Cc1cn2cc(Cl)ccc2n1)C(=O)N[C@H](CN)Cc1ccccc1` [Example 108], the IC50 was determined as 4.17 µM.
Regarding `CCC(=O)N[C@@H](Cc1nc2ccc(Cl)cc2s1)C(=O)N[C@H](C(=O)N[C@@H](CCCCN)C(=O)N[C@@H]1CCOc2cc(Cl)ccc21)C1CCCC1` [Example 171], the IC50 was found to be 0.168 µM.
